Reference: ChEMBL document CHEMBL3352089 (J Med Chem, 2014)

Columns and labels:
Format in all cases: cell-based
Settings in all cases: read-out: Activity
[1] = Cytotoxicity against human HepG2 cells assessed as cell viability at 1 uM after 4 hrs by Cell-Titer Glo assay
[2] = Cytotoxicity against human HepG2 cells assessed as cell viability at 10 uM after 4 hrs by Cell-Titer Glo assay
[3] = Cytotoxicity against human HepG2 cells assessed as cell viability at 1 uM after 24 hrs by Cell-Titer Glo assay
[4] = Cytotoxicity against human HepG2 cells assessed as cell viability at 100 uM after 4 hrs by Cell-Titer Glo assay
[5] = Cytotoxicity against human HepG2 cells assessed as cell viability at 10 uM after 24 hrs by Cell-Titer Glo assay
[6] = Cytotoxicity against human HepG2 cells assessed as cell viability at 100 uM after 24 hrs by Cell-Titer Glo assay

COc1cc(-c2cnn3cc(-c4ccc(N5CCNCC5)cc4)cnc23)cc(OC)c1OC
> 75%: viability at 4 h, 1 µM [1] | viability at 4 h, 10 µM [2] | viability at 24 h, 1 µM [3]

COc1cc(-c2cc(-c3cccc(N4CCNCC4)c3)cnc2N)cc(OC)c1OC
> 75%: viability at 4 h, 1 µM [1] | viability at 4 h, 10 µM [2] | viability at 4 h, 100 µM [4] | viability at 24 h, 1 µM [3] | viability at 24 h, 10 µM [5]

Cc1nc(Nc2ncc(C(=O)Nc3c(C)cccc3Cl)s2)cc(N2CCN(CCO)CC2)n1 [DASATINIB]
> 75%: viability at 4 h, 1 µM [1] | viability at 4 h, 10 µM [2] | viability at 24 h, 1 µM [3]

Cc1ccc(Nc2nccc(N(C)c3ccc4c(C)n(C)nc4c3)n2)cc1S(N)(=O)=O [PAZOPANIB]
> 75%: viability at 4 h, 1 µM [1] | viability at 4 h, 10 µM [2] | viability at 4 h, 100 µM [4] | viability at 24 h, 1 µM [3] | viability at 24 h, 10 µM [5] | viability at 24 h, 100 µM [6]

CNc1ncc(-c2ccc(N3CCNCC3)cc2)cc1-c1cc(OC)c(OC)c(OC)c1
> 75%: viability at 4 h, 1 µM [1] | viability at 4 h, 10 µM [2] | viability at 4 h, 100 µM [4] | viability at 24 h, 1 µM [3] | viability at 24 h, 10 µM [5]

CCN(CC)CCNC(=O)c1c(C)[nH]c(/C=C2\C(=O)Nc3ccc(F)cc32)c1C [SUNITINIB]
> 75%: viability at 4 h, 1 µM [1] | viability at 4 h, 10 µM [2] | viability at 24 h, 1 µM [3]

COc1cc(-c2cnc(N)c(-c3cc(OC)c(OC)c(OC)c3)c2)ccc1O
> 75%: viability at 4 h, 1 µM [1] | viability at 4 h, 10 µM [2] | viability at 4 h, 100 µM [4] | viability at 24 h, 1 µM [3] | viability at 24 h, 10 µM [5] | viability at 24 h, 100 µM [6]

Nc1ncc(-c2ccc(N3CCNCC3)cc2)cc1-c1ccc2c(c1)OCCO2
> 75%: viability at 4 h, 1 µM [1] | viability at 4 h, 10 µM [2] | viability at 4 h, 100 µM [4] | viability at 24 h, 1 µM [3] | viability at 24 h, 10 µM [5]

COc1cc(-c2cc(-c3ccc(O)cc3)cnc2N)cc(OC)c1OC
> 75%: viability at 4 h, 1 µM [1] | viability at 4 h, 10 µM [2] | viability at 4 h, 100 µM [4] | viability at 24 h, 1 µM [3] | viability at 24 h, 10 µM [5] | viability at 24 h, 100 µM [6]

COc1cc(-c2cc(-c3ccc(N4CCNCC4)cc3)cnc2Cl)cc(OC)c1OC
> 75%: viability at 4 h, 1 µM [1] | viability at 4 h, 10 µM [2] | viability at 4 h, 100 µM [4] | viability at 24 h, 1 µM [3] | viability at 24 h, 10 µM [5]

Cc1cn(-c2cc(NC(=O)c3ccc(C)c(Nc4nccc(-c5cccnc5)n4)c3)cc(C(F)(F)F)c2)cn1 [NILOTINIB]
> 75%: viability at 4 h, 1 µM [1] | viability at 4 h, 10 µM [2] | viability at 4 h, 100 µM [4] | viability at 24 h, 1 µM [3] | viability at 24 h, 10 µM [5] | viability at 24 h, 100 µM [6]

CS(=O)(=O)CCNCc1ccc(-c2ccc3ncnc(Nc4ccc(OCc5cccc(F)c5)c(Cl)c4)c3c2)o1 [LAPATINIB]
> 75%: viability at 4 h, 1 µM [1] | viability at 4 h, 10 µM [2] | viability at 4 h, 100 µM [4] | viability at 24 h, 1 µM [3] | viability at 24 h, 10 µM [5] | viability at 24 h, 100 µM [6]

COc1cc(OC)cc(-c2cc(-c3ccc(N4CCNCC4)cc3)cnc2N)c1
> 75%: viability at 4 h, 1 µM [1] | viability at 4 h, 10 µM [2] | viability at 24 h, 1 µM [3] | viability at 24 h, 10 µM [5]

c1cc(-c2cnn3cc(-c4ccc(N5CCNCC5)cc4)cnc23)c2cccnc2c1
> 75%: viability at 4 h, 1 µM [1] | viability at 4 h, 10 µM [2] | viability at 4 h, 100 µM [4] | viability at 24 h, 1 µM [3] | viability at 24 h, 10 µM [5]

Nc1ncc(-c2ccc(N3CCNCC3)cc2)cc1-c1cccc2ncccc12
> 75%: viability at 4 h, 1 µM [1] | viability at 4 h, 10 µM [2] | viability at 4 h, 100 µM [4] | viability at 24 h, 1 µM [3] | viability at 24 h, 10 µM [5]

COc1ccc(-c2cc(-c3ccc(N4CCNCC4)cc3)cnc2N)cc1
> 75%: viability at 4 h, 1 µM [1] | viability at 4 h, 10 µM [2] | viability at 24 h, 1 µM [3] | viability at 24 h, 10 µM [5]

COc1cc(-c2cc(-c3ccc(N4CCNCC4)cc3)cnc2N)ccc1C
> 75%: viability at 4 h, 1 µM [1] | viability at 4 h, 10 µM [2] | viability at 24 h, 1 µM [3] | viability at 24 h, 10 µM [5]

COc1cc(-c2cc(-c3ccc(N4CCNCC4)cc3)cnc2N)ccc1Cl
> 75%: viability at 4 h, 1 µM [1] | viability at 4 h, 10 µM [2] | viability at 24 h, 1 µM [3] | viability at 24 h, 10 µM [5]

C#Cc1cccc(Nc2ncnc3cc(OCCOC)c(OCCOC)cc23)c1 [ERLOTINIB]
> 75%: viability at 4 h, 1 µM [1] | viability at 4 h, 10 µM [2] | viability at 4 h, 100 µM [4] | viability at 24 h, 1 µM [3] | viability at 24 h, 10 µM [5] | viability at 24 h, 100 µM [6]

COc1cc(-c2cc(-c3ccc(N4CCNCC4)cc3)cnc2OC)cc(OC)c1OC
> 75%: viability at 4 h, 1 µM [1] | viability at 4 h, 10 µM [2] | viability at 24 h, 1 µM [3] | viability at 24 h, 10 µM [5]

CCCS(=O)(=O)Nc1ccc(F)c(C(=O)c2c[nH]c3ncc(-c4ccc(Cl)cc4)cc23)c1F [VEMURAFENIB]
> 75%: viability at 4 h, 1 µM [1] | viability at 4 h, 10 µM [2] | viability at 4 h, 100 µM [4] | viability at 24 h, 1 µM [3] | viability at 24 h, 10 µM [5]

COc1cc(OC)cc(-c2cncc(-c3ccc(N4CCNCC4)cc3)c2)c1
> 75%: viability at 4 h, 1 µM [1] | viability at 4 h, 10 µM [2] | viability at 24 h, 1 µM [3] | viability at 24 h, 10 µM [5]

COc1cccc(-c2cc(-c3ccc(N4CCNCC4)cc3)cnc2N)c1
> 75%: viability at 4 h, 1 µM [1] | viability at 4 h, 10 µM [2] | viability at 4 h, 100 µM [4] | viability at 24 h, 1 µM [3] | viability at 24 h, 10 µM [5]

Nc1ncc(-c2ccc(N3CCNCC3)cc2)cc1-c1ccnc2ccccc12
> 75%: viability at 4 h, 1 µM [1] | viability at 4 h, 10 µM [2] | viability at 4 h, 100 µM [4] | viability at 24 h, 1 µM [3] | viability at 24 h, 10 µM [5]

COc1cc(-c2cc(-c3cccc(NS(C)(=O)=O)c3)cnc2N)cc(OC)c1OC
> 75%: viability at 4 h, 1 µM [1] | viability at 4 h, 10 µM [2] | viability at 4 h, 100 µM [4] | viability at 24 h, 1 µM [3] | viability at 24 h, 10 µM [5] | viability at 24 h, 100 µM [6]

Nc1ncc(-c2cccc(N3CCNCC3)c2)cc1-c1ccnc2ccccc12
> 75%: viability at 4 h, 1 µM [1] | viability at 4 h, 10 µM [2] | viability at 24 h, 1 µM [3] | viability at 24 h, 10 µM [5]

N#CC[C@H](C1CCCC1)n1cc(-c2ncnc3[nH]ccc23)cn1 [RUXOLITINIB]
> 75%: viability at 4 h, 1 µM [1] | viability at 4 h, 10 µM [2] | viability at 4 h, 100 µM [4] | viability at 24 h, 1 µM [3] | viability at 24 h, 10 µM [5]

COc1ccc(-c2cc(-c3ccc(N4CCNCC4)cc3)cnc2N)cc1OC
> 75%: viability at 4 h, 1 µM [1] | viability at 4 h, 10 µM [2] | viability at 4 h, 100 µM [4] | viability at 24 h, 1 µM [3] | viability at 24 h, 10 µM [5]

c1ccc2c(-c3cnn4cc(-c5ccc(N6CCNCC6)cc5)cnc34)ccnc2c1
> 75%: viability at 4 h, 1 µM [1] | viability at 4 h, 10 µM [2] | viability at 24 h, 1 µM [3]

C[C@@H](Oc1cc(-c2cnn(C3CCNCC3)c2)cnc1N)c1c(Cl)ccc(F)c1Cl [CRIZOTINIB]
> 75%: viability at 4 h, 1 µM [1] | viability at 4 h, 10 µM [2] | viability at 24 h, 1 µM [3] | viability at 24 h, 10 µM [5]

CNC(=O)c1cc(Oc2ccc(NC(=O)Nc3ccc(Cl)c(C(F)(F)F)c3)cc2)ccn1 [SORAFENIB]
> 75%: viability at 4 h, 1 µM [1] | viability at 4 h, 10 µM [2] | viability at 4 h, 100 µM [4] | viability at 24 h, 1 µM [3] | viability at 24 h, 10 µM [5]

COc1cc(-c2cc(-c3ccc(N4CCNCC4)cc3)cnc2N(C)C)cc(OC)c1OC
> 75%: viability at 4 h, 1 µM [1] | viability at 4 h, 10 µM [2] | viability at 4 h, 100 µM [4] | viability at 24 h, 1 µM [3] | viability at 24 h, 10 µM [5]

CC(C)Oc1cccc(-c2cc(-c3ccc(N4CCNCC4)cc3)cnc2N)c1
> 75%: viability at 4 h, 1 µM [1] | viability at 4 h, 10 µM [2] | viability at 24 h, 1 µM [3] | viability at 24 h, 10 µM [5]
